Data taken from patent US9585892B2, “Solid forms comprising N-(5-tert-butyl-isoxazol-3-yl)-N′-{4-[7-(2-morpholin-4-yl-ethoxy)imidazo[2,1-b][1,3]benzothiazol-2-yl]phenyl}urea, compositions thereof, and uses therewith” (AMBIT BIOSCIENCES CORPORATION, priority 2007, dated 2017).
Entries after “also recorded” stand apart in the source; their conditions may differ. Where a name gives a salt, the structure may show the parent alone.

Experiment: Stress experiments (temperature or relative humidity, XRPD after stress)
Type: physicochemical
Method: Stress Experiments. Solids were stressed under different temperature or relative humidity (RH) environments for a measured time period. Specific RH values were achieved by placing the sample inside sealed chambers containing saturated salt solutions. The salt solutions were selected and prepared following an ASTM standard procedure. Samples were analyzed by XRPD immediately after removal from the stress environment.
X-ray powder diffraction analyses were performed on an Inel XRG-3000 diffractometer, equipped with a curved position-sensitive detector with a […] of 120°. Real time data was collected using Cu Kα radiation starting at approximately 4 ° 2θ at a resolution of 0.03 ° 2θ. The tube voltage and amperage were set to 40 kV and 30 mA, respectively. […] Samples were prepared for analysis by packing them into thin-walled glass capillaries. Each capillary was mounted onto a goniometer head that is motorized to permit spinning of the capillary during data acquisition. Instrument calibration was performed daily using a silicon reference standard.

[1] = 75% RH, ambient temperature, 5 days
[2] = 75% RH, ambient temperature, 3 days
[3] = 75% RH, ambient temperature, 3 days, listed as Amorphous

CC(C)(C)c1cc(NC(=O)Nc2ccc(-c3cn4c(n3)sc3cc(OCCN5CCOCC5)ccc34)cc2)no1 [Form A of the HBr salt of Compound B1, N-(5-tert-butyl-isoxazol-3-yl)-N′-{4-[7-(2-morpholin-4-yl-ethoxy)imidazo[2,1-b][1,3]benzothiazol-2-yl]phenyl}urea]
deliquescence upon storage (75% RH, 4 days): does not deliquesce; also recorded: did not deliquesce

CC(C)(C)c1cc(NC(=O)Nc2ccc(-c3cn4c(n3)sc3cc(OCCN5CCOCC5)ccc34)cc2)no1 [Form A of the edisylate salt of Compound B1] [N-(5-tert-butyl-isoxazol-3-yl)-N′-{4-[7-(2-morpholin-4-yl-ethoxy)imidazo[2,1-b][1,3]benzothiazol-2-yl]phenyl}urea]
deliquescence upon storage (75% RH, 7 days): does not deliquesce; also recorded: did not deliquesce

CC(C)(C)c1cc(NC(=O)Nc2ccc(-c3cn4c(n3)sc3cc(OCCN5CCOCC5)ccc34)cc2)no1 [Form A of the mesylate salt of Compound B1] [N-(5-tert-butyl-isoxazol-3-yl)-N′-{4-[7-(2-morpholin-4-yl-ethoxy)imidazo[2,1-b][1,3]benzothiazol-2-yl]phenyl}urea]
deliquescence upon storage [1]: does not deliquesce; also recorded: did not deliquesce

CC(C)(C)c1cc(NC(=O)Nc2ccc(-c3cn4c(n3)sc3cc(OCCN5CCOCC5)ccc34)cc2)no1 [Form A of the napsylate salt of Compound B1] [N-(5-tert-butyl-isoxazol-3-yl)-N′-{4-[7-(2-morpholin-4-yl-ethoxy)imidazo[2,1-b][1,3]benzothiazol-2-yl]phenyl}urea]
deliquescence upon storage (75% RH, 7 days): does not deliquesce; also recorded: did not deliquesce

CC(C)(C)c1cc(NC(=O)Nc2ccc(-c3cn4c(n3)sc3cc(OCCN5CCOCC5)ccc34)cc2)no1 [Form B of the besylate salt of Compound B1] [N-(5-tert-butyl-isoxazol-3-yl)-N′-{4-[7-(2-morpholin-4-yl-ethoxy)imidazo[2,1-b][1,3]benzothiazol-2-yl]phenyl}urea]
deliquescence upon storage (75% RH, 7 days): does not deliquesce; also recorded: did not deliquesce

CC(C)(C)c1cc(NC(=O)Nc2ccc(-c3cn4c(n3)sc3cc(OCCN5CCOCC5)ccc34)cc2)no1 [Form B of the esylate salt of Compound B1] [N-(5-tert-butyl-isoxazol-3-yl)-N′-{4-[7-(2-morpholin-4-yl-ethoxy)imidazo[2,1-b][1,3]benzothiazol-2-yl]phenyl}urea]
deliquescence upon storage (75% RH, 7 days): does not deliquesce; also recorded: did not deliquesce

CC(C)(C)c1cc(NC(=O)Nc2ccc(-c3cn4c(n3)sc3cc(OCCN5CCOCC5)ccc34)cc2)no1 [Form B of the mesylate salt of Compound B1] [N-(5-tert-butyl-isoxazol-3-yl)-N′-{4-[7-(2-morpholin-4-yl-ethoxy)imidazo[2,1-b][1,3]benzothiazol-2-yl]phenyl}urea]
deliquescence upon storage (75% RH, 4 days): does not deliquesce; also recorded: did not deliquesce

CC(C)(C)c1cc(NC(=O)Nc2ccc(-c3cn4c(n3)sc3cc(OCCN5CCOCC5)ccc34)cc2)no1 [Form B of the napsylate salt of Compound B1] [N-(5-tert-butyl-isoxazol-3-yl)-N′-{4-[7-(2-morpholin-4-yl-ethoxy)imidazo[2,1-b][1,3]benzothiazol-2-yl]phenyl}urea]
deliquescence upon storage (75% RH, 7 days): does not deliquesce; also recorded: did not deliquesce

CC(C)(C)c1cc(NC(=O)Nc2ccc(-c3cn4c(n3)sc3cc(OCCN5CCOCC5)ccc34)cc2)no1 [Form B of the tosylate salt of Compound B1] [N-(5-tert-butyl-isoxazol-3-yl)-N′-{4-[7-(2-morpholin-4-yl-ethoxy)imidazo[2,1-b][1,3]benzothiazol-2-yl]phenyl}urea]
deliquescence upon storage [1]: does not deliquesce; also recorded: did not deliquesce

CC(C)(C)c1cc(NC(=O)Nc2ccc(-c3cn4c(n3)sc3cc(OCCN5CCOCC5)ccc34)cc2)no1 [Form C of the sulfate salt of Compound B1] [N-(5-tert-butyl-isoxazol-3-yl)-N′-{4-[7-(2-morpholin-4-yl-ethoxy)imidazo[2,1-b][1,3]benzothiazol-2-yl]phenyl}urea]
deliquescence upon storage (75% RH, 7 days): does not deliquesce; also recorded: did not deliquesce

CC(C)(C)c1cc(NC(=O)Nc2ccc(-c3cn4c(n3)sc3cc(OCCN5CCOCC5)ccc34)cc2)no1 [Form D of the HCl salt of Compound B1, N-(5-tert-butyl-isoxazol-3-yl)-N′-{4-[7-(2-morpholin-4-yl-ethoxy)imidazo[2,1-b][1,3]benzothiazol-2-yl]phenyl}urea]
XRPD Result after stress (Oven: 80° C., 3 days): Form D

CC(C)(C)c1cc(NC(=O)Nc2ccc(-c3cn4c(n3)sc3cc(OCCN5CCOCC5)ccc34)cc2)no1 [Form F of the HCl salt of Compound B1, N-(5-tert-butyl-isoxazol-3-yl)-N′-{4-[7-(2-morpholin-4-yl-ethoxy)imidazo[2,1-b][1,3]benzothiazol-2-yl]phenyl}urea]
XRPD Result after stress (Oven: 80° C., 3 days): substantially disordered, but which retains some Form F content
XRPD Result after stress (Oven: 80° C., 3 days, listed as F): Disordered + F

CC(C)(C)c1cc(NC(=O)Nc2ccc(-c3cn4c(n3)sc3cc(OCCN5CCOCC5)ccc34)cc2)no1 [N-(5-tert-butyl-isoxazol-3-yl)-N′-{4-[7-(2-morpholin-4-yl-ethoxy)imidazo[2,1-b][1,3]benzothiazol-2-yl]phenyl}urea]
XRPD Result after stress [2]: remains unchanged
deliquescence upon storage [2]: does not deliquesce; also recorded: did not deliquesce
water corresponding to the weight gain [2]: about 4.3 molar equivalents of water
weight gain [2]: about 12.3%
XRPD Result after stress [3]: Amorphous
weight gain [3]: white solid, irregular particles, 11.8%
XRPD Result after stress (Oven: 40° C., 8 days): remains unchanged
XRPD Result after stress (Oven: 40° C., 8 days, listed as Amorphous): Amorphous
